# According to patent US20050059072A1, “Selective modulation of TLR gene expression” (3M Innovative Properties Company, priority 2003, published 2005):
# Entries after “also recorded” stand apart in the source; their conditions may differ.
# Assays:
# [1] = system: TLR7 gene; assay: TLR7 gene expression in macrophages (real-time PCR); assay type: cell-based, Human; conditions: macrophages (FIG. 7)
# Method: (§1) For some experiments, Peripheral Blood Mononuclear Cells (PBMCs) were isolated from donors by Ficol gradient centrifugation. For other experiments, leukophoresed mononuclear cells were obtained from AllCells, LLC (Berkeley, Calif.). Monocyte derived macrophages and dendritic cells were prepared from PBMCs using positive selection of CD14+ cells with Miltenyi micro beads (Miltenyi Biotec Inc., Auburn, Calif.).
# (§2) IRM compounds were prepared as 1000× stocks in DMSO. PBMCs were diluted to approximately 3.0×10^6 cells per mL in Ex-Vivo 20 media, and 1.0 mL was distributed per well in a 96 deep well plate. Cells were allowed to equilibrate at 37° C. for 1 hour, then IRM compound was added to the culture.
# (§3) At each indicated time point, cells were harvested as follows. […]
# (§4) The RNA was then ethanol precipitated, washed, and the pellet re-suspended in 10 μL of water. cDNA was made with the Invitrogen Superscript II Kit (Invitrogen Corp., Carlsbad, Calif.) using random priming and 2-3 μg of total RNA. […] Data was analyzed using SDS 2.0 software (Applied Biosystems, Inc.) using a threshold value of 0.1. The results were imported into Excel and the expression fold changes were calculated using the ΔΔCt method, (User Bulletin #2, PE Applied BioSystems, Inc.). […]
# [2] = system: TLR7; assay: TLR7 gene expression in dendritic cells (real-time PCR); assay type: cell-based, Human
# Method: as §1, with “Auburn, Calif.). Dendritic cells were differentiated in RPMI 1640 with 10% fetal bovine serum, using 33 ng/mL IL4 and 66 ng/mL GM-CSF, and macrophages were differentiated using 25 ng/mL M-CSF, for seven days at 37° C.” for “Auburn, Calif.).”
# (§5) IRM compounds were prepared as 1000× stocks in DMSO. PBMCs were diluted to approximately 3.0×10^6 cells per mL in Ex-Vivo 20 media, and 1.0 mL was distributed per well in a 96 deep well plate. Cells were allowed to equilibrate at 37° C. for 1 hour, then IRM compound was added to the culture. […]
# (§6) Purified total RNA was transferred to Costar 3565 plate and the optical density at 260 nm and 280 nm was read using a Molecular Devices SpectroMax 384 Plus (Molecular Devices Corp., Sunnyvale, Calif.). […] Data was analyzed using SDS 2.0 software (Applied Biosystems, Inc.) using a threshold value of 0.1. The results were imported into Excel and the expression fold changes were calculated using the ΔΔCt method, (User Bulletin #2, PE Applied BioSystems, Inc.). […]
# [3] = system: TLR5 gene; assay: TLR5 gene expression in macrophages (real-time PCR); assay type: cell-based, Human; conditions: macrophages (FIG. 6)
# Method: as §1, §2, §3, §4
# [4] = system: TLR8 gene; assay: TLR8 gene expression in PBMCs (real-time PCR); assay type: cell-based, Human; conditions: in vitro (FIG. 1, FIG. 4)
# Method: as §1, with “Auburn, Calif.). Dendritic cells were differentiated in RPMI 1640 with 10% fetal bovine serum, using 33 ng/mL IL4 and 66 ng/mL GM-CSF, and macrophages were differentiated using 25 ng/mL M-CSF, for seven days at 37° C.” for “Auburn, Calif.).”
# as §2
# (§7) At each indicated time point, cells were harvested as follows. PBMCs and dendritic cells were harvested by centrifuging the plate at 1500 RPM, 360 RCF, at 4° C. in a Qiagen SIGMA centrifuge (Qiagen Inc., Valencia, Calif.). The media was then vacuum aspirated and 400 μL of RLT buffer with 1.0% 2-mercaptoethanol was added to each well. Macrophage cultures were harvested by aspiration of the media and direct addition of the RLT buffer to the well. The total RNA was purified using a semi-automated procedure on the Qiagen BioRobot 8000 (Qiagen Inc., Valencia, Calif.), with an incorporated DNase digestion step.
# (§8) Purified total RNA was transferred to Costar 3565 plate and the optical density at 260 nm and 280 nm was read using a Molecular Devices SpectroMax 384 Plus (Molecular Devices Corp., Sunnyvale, Calif.). The RNA was then ethanol precipitated, washed, and the pellet re-suspended in 10 μL of water. cDNA was made with the Invitrogen Superscript II Kit (Invitrogen Corp., Carlsbad, Calif.) using random priming and 2-3 μg of total RNA. PCR was performed using an ABI 7900 (Applied Biosystems Corp., Foster City, Calif.), and the 384 well Microfluidic Card with Taqman™ chemistry, and the reactions were standardized using 2 ng/μL cDNA in the master mix. Cycling conditions were 50° C. for 10 minutes, 95° C. for 2 minutes, then 35 cycles of 95° C. for 30 seconds, and 60° C. for 1 minute. Data was analyzed using SDS 2.0 software (Applied Biosystems, Inc.) using a threshold value of 0.1. The results were imported into Excel and the expression fold changes were calculated using the ΔΔCt method, (User Bulletin #2, PE Applied BioSystems, Inc.). Normalization of signals was performed using the housekeeping gene, GAPDH.
# [5] = system: TLR6; assay: TLR6 gene expression in dendritic cells (real-time PCR); assay type: cell-based, Human
# Method: as §1, with “Auburn, Calif.). Dendritic cells were differentiated in RPMI 1640 with 10% fetal bovine serum, using 33 ng/mL IL4 and 66 ng/mL GM-CSF, and macrophages were differentiated using 25 ng/mL M-CSF, for seven days at 37° C.” for “Auburn, Calif.).”
# as §5, §6
# [6] = system: TLR3 gene; assay: TLR3 gene expression in macrophages (real-time PCR); assay type: cell-based, Human; conditions: macrophages (FIG. 5)
# Method: as §1, §2, §7
# as §4, with “RNA. PCR was performed using an ABI 7900 (Applied Biosystems Corp., Foster City, Calif.), and the 384 well Microfluidic Card with Taqman™ chemistry, and the reactions were standardized using 2 ng/μL cDNA in the master mix.” for “RNA.”
# [7] = system: TLR3 gene; assay: TLR3 gene expression in PBMCs (real-time PCR); assay type: cell-based, Human; conditions: in vitro (FIG. 1, FIG. 2)
# Method: as §1, with “Auburn, Calif.). Dendritic cells were differentiated in RPMI 1640 with 10% fetal bovine serum, using 33 ng/mL IL4 and 66 ng/mL GM-CSF, and macrophages were differentiated using 25 ng/mL M-CSF, for seven days at 37° C.” for “Auburn, Calif.).”
# as §2, §7, §8
# [8] = system: TLR1; assay: TLR1 expression in actinic keratosis lesion biopsies, phase II study; assay type: in vivo, human; conditions: AK lesion, 5% cream (ALDARA) 3 times per week for 4 weeks; highest response time point vs sun-unexposed non-AK skin
# Text: (§9) A phase II, double-blind, vehicle-controlled, randomized, parallel group study included 17 male subjects with histologically confirmed actinic keratosis (AK). Eligible subjects were randomized to receive either IRM5 formulated as a 5% cream (ALDARA, 3M Pharmaceuticals, St. Paul, Minn.) or vehicle cream in a 3:1 ratio. Study subjects had at least five clinically typical, discrete, visible AK lesions within a 25 cm^2 area on the balding scalp that were suitable for shave biopsies.
# (§10) Subjects applied 1 sachet (250 mg) of study cream to the treatment area 3 times per week for 4 weeks. Each dose of study cream was applied prior to normal sleeping hours at approximately the same time on each dosing day and was to remain on the skin for approximately 8 hours.
# (§11) Each subject could have up to 8 shave biopsies performed. Biopsy samples obtained at the treatment initiation visit and all subsequent visits were designated for gene expression analysis. At the treatment initiation visit (T=0), an intact lesion in the treatment area was biopsied (sample series A) to establish a baseline for AK gene expression. […] The sun-unexposed area biopsy was used to establish baseline control for gene expression. […]
# (§12) RNA from each sample was extracted and expression of TLR1, TLR3, TLR6, TLR7, TLR8, TLR9, and TLR10 was analyzed as described in Example 1. […]
# [9] = system: TLR6; assay: TLR6 expression in actinic keratosis lesion biopsies, phase II study; assay type: in vivo, human; conditions: AK lesion, 5% cream (ALDARA) 3 times per week for 4 weeks; highest response time point vs sun-unexposed non-AK skin
# Text: as §9, §10, §11, §12
# [10] = system: TLR9; assay: TLR9 expression in actinic keratosis lesion biopsies, phase II study; assay type: in vivo, human; conditions: AK lesion, 5% cream (ALDARA) 3 times per week for 4 weeks; highest response time point vs sun-unexposed non-AK skin
# Text: as §9, §10, §11, §12
# [11] = system: TLR3; assay: TLR3 expression in actinic keratosis lesion biopsies, phase II study; assay type: in vivo, human; conditions: AK lesion, 5% cream (ALDARA) 3 times per week for 4 weeks; highest response time point vs sun-unexposed non-AK skin
# Text: as §9, §10, §11, §12
# [12] = system: TLR10; assay: TLR10 expression in actinic keratosis lesion biopsies, phase II study; assay type: in vivo, human; conditions: AK lesion, 5% cream (ALDARA) 3 times per week for 4 weeks; highest response time point vs sun-unexposed non-AK skin
# Text: as §9, §10, §11, §12
# [13] = system: TLR7; assay: TLR7 expression in actinic keratosis lesion biopsies, phase II study; assay type: in vivo, human; conditions: AK lesion, 5% cream (ALDARA) 3 times per week for 4 weeks; highest response time point vs sun-unexposed non-AK skin
# Text: as §9, §10, §11, §12
# [14] = system: TLR8; assay: TLR8 expression in actinic keratosis lesion biopsies, phase II study; assay type: in vivo, human; conditions: AK lesion, 5% cream (ALDARA) 3 times per week for 4 weeks; highest response time point vs sun-unexposed non-AK skin
# Text: as §9, §10, §11, §12
# [15] = system: TLR7 gene; assay: TLR7 gene expression in PBMCs (real-time PCR); assay type: cell-based, Human; conditions: in vitro (FIG. 1, FIG. 3)
# Method: as §1, with “Auburn, Calif.). Dendritic cells were differentiated in RPMI 1640 with 10% fetal bovine serum, using 33 ng/mL IL4 and 66 ng/mL GM-CSF, and macrophages were differentiated using 25 ng/mL M-CSF, for seven days at 37° C.” for “Auburn, Calif.).”
# as §5, §6
structure (smiles),measurement,setting,value
"CCOCc1nc2c(N)nc3c(c2n1CC(C)(C)O)CCCC3 [IRM1, 4-amino-2-(ethoxymethyl)-α,α-dimethyl-6,7,8,9-tetrahydro-1H-imidazo[4,5-c]quinoline-1-ethanol]",modulation of TLR7 gene expression,[1],downregulated
same,modulation of expression from TLR7,[2],may downregulate expression
same,modulation of TLR5 gene expression,[3],downregulated
same,modulation of TLR8 gene expression,[4],higher and earlier peaks of gene expression
same,modulation of expression from TLR6,[5],may downregulate expression
same,modulation of TLR3 gene expression,[6],downregulated; also recorded: downregulates gene expression
same,modulation of TLR3 gene expression,[7],upregulates gene expression
"CCCCc1nc2c(N)nc3ccccc3c2n1CCCCNS(C)(=O)=O [IRM3, N-[4-(4-amino-2-butyl-1H-imidazo[4,5-c]quinolin-1-yl)butyl]methanesulfonamide]",modulation of TLR3 gene expression,[6],do not significantly modulate gene expression
same,modulation of TLR3 gene expression,[7],upregulate gene expression
"CC(C)Cn1cnc2c(N)nc3ccccc3c21 [IRM5, 1-(2-methylpropyl)-1H-imidazo[4,5-c]quinolin-4-amine]","Median Fold Change - IRM5-treated (IRM-treated/Series C), TLR1",[8],2.1 fold
same,"Median Fold Change - IRM5-treated (IRM-treated/Series C), TLR6",[9],1.9 fold
same,modulation of TLR3 gene expression,[6],do not significantly modulate gene expression
same,"Median Fold Change - IRM5-treated (IRM-treated/Series C), TLR9",[10],15.2 fold
same,modulation of TLR3 gene expression,[7],upregulate gene expression
same,"Median Fold Change - IRM5-treated (IRM-treated/Series C), TLR3",[11],1.5 fold
same,"Median Fold Change - IRM5-treated (IRM-treated/Series C), TLR10",[12],3.6 fold
same,"Median Fold Change - IRM5-treated (IRM-treated/Series C), TLR7",[13],4.9 fold
same,"Median Fold Change - IRM5-treated (IRM-treated/Series C), TLR8",[14],2.4 fold
"Cc1nc2c(N)nc3ccccc3c2n1CC(C)(C)O [IRM6, 4-amino-α,α,2-trimethyl-1H-imidazo[4,5-c]quinoline-1-ethanol]",modulation of TLR8 gene expression,[4],higher and earlier peaks of gene expression
"CC(C)Cn1cnc2c(N)nc3cccnc3c21 [IRM7, 1-(2-methylpropyl)-1H-imidazo[4,5-c][1,5]naphthyridin-4-amine]",modulation of TLR8 gene expression,[4],little effect on gene expression
same,modulation of TLR3 gene expression,[7],little effect on gene expression
same,modulation of TLR7 gene expression,[15],little effect on gene expression
"Cc1nc2c(N)nc3cccnc3c2n1CC(C)C [IRM8, 2-methyl-1-(2-methylpropyl)-1H-imidazo[4,5-c][1,5]naphthyridin-4-amine]",modulation of TLR8 gene expression,[4],higher and earlier peaks of gene expression
